These results are taken from patent US20230270711A1, “Improved Anti-Hangover Composition, Its Preparation and Uses” (Zobrius Pharma AS, priority 2019, published 2023).

Molecules are shown by their SMILES.

In one experiment the target is LADH. Conditions: read-out: Ki, inhibition of LADH; cited from earlier work.
In the next experiment the test system is alcohol metabolism. The experiment can be described thus: Clinical Study Protocol: alcohol metabolism from BAC (CA 2000 Digital Alcohol Detector), Examples 1 and 2. The class given is in vivo, human. Conditions: in the 500 ml Composition A (90 g fructose). The method, then: Clinical Study Protocol—The studies presented in Examples 1 and 2 were carried out with 10 individuals (6 males and 4 females, aged 24-57 years).
In the control study (using water alone as the after-alcohol drink), the test persons were given 8 oz. (ca.2.4 dl) of vodka mixed with 6 dl Sprite® (The Coca Cola Company). The alcohol was consumed within one hour. At a given time, 30-60 minutes after alcohol consumption, each person drank a given volume of water (control composition). The alcohol level was then measured as described below.
One week later, a second study was carried out, wherein the same test persons were given the same amounts of vodka and Sprite®, respectively. At the given time after alcohol consumption, each test person drank the given volume of a test composition. The alcohol level was then measured as described just below.
Blood alcohol concentration (BAC) was measured, using a CA 2000 Digital Alcohol Detector, once every 30 minutes in each experiment. Each value is an average of four parallel measurements. Evaluation of effect against hangover was graded on a scale from 1-10 (where 10 represents the greatest effect).
The study protocol was carried out as described above, wherein the test composition comprised Comparative Composition A (defined below); the given time was 45 minutes; and the given volume was 500 ml. […]

Broadly, the Ki is the equilibrium dissociation constant of an inhibitor or competing ligand from its target. Turning to `NC(=O)C1=CN([C@@H]2O[C@H](COP(=O)(O)OP(=O)(O)OC[C@H]3O[C@@H](n4cnc5c(N)ncnc54)[C@H](O)[C@@H]3O)[C@@H](O)[C@H]2O)C=CC1` [NADH], the inhibitory constant (Ki) at LADH was 56 µM.
Consider `O=C(CO)[C@@H](O)[C@H](O)[C@H](O)CO` [fructose], for which, in the experiment with alcohol metabolism, the “Contribution of fructose to the acceleration of alcohol degradation” value was 20-25%.
